# Test results published in patent US11634404B2 (priority 2016, dated 2023).
# Experiments:
# [1] = target: T1, D2 DAR (Homo sapiens (Human), UniProt P14416); type: cell-based; conditions: β-arrestin recruitment, agonist; 'curve' = wrapped cell 'curve interrupted'
# [2] = target: D3 DAR (Homo sapiens (Human), UniProt P35462); type: cell-based; conditions: β-arrestin recruitment, agonist
# [3] = target: panel of 168 GPCRs (Homo sapiens, UniProt O43613); type: cell-based; conditions: GPCR HCRTR1; agonist, 10 μM
# [4] = target: panel of 168 GPCRs (Homo sapiens, UniProt Q9H1C0); type: cell-based; conditions: GPCR GPR92; agonist, 10 μM
# [5] = target: panel of 168 GPCRs (Homo sapiens, UniProt P25101); type: cell-based; conditions: GPCR EDNRA; agonist, 10 μM
# panel of 168 GPCRs (Homo sapiens, UniProt P25101), sequence (P25101 21-427 limits assumed): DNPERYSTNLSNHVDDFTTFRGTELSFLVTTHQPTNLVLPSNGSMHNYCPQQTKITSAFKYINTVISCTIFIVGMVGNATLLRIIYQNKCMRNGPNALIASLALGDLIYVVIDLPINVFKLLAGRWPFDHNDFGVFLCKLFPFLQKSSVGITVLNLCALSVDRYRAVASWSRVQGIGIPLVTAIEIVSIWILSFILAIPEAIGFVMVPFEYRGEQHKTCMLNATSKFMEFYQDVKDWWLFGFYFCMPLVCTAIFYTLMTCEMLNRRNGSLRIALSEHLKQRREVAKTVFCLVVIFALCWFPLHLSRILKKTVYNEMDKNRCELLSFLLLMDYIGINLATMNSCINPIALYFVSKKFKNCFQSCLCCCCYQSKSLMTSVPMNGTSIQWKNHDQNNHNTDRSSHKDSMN
# [6] = target: panel of 168 GPCRs (Homo sapiens, UniProt Q96LB2); type: cell-based; conditions: GPCR MRGPRX1; agonist, 10 μM
# [7] = target: panel of 168 GPCRs (Homo sapiens, UniProt P21452); type: cell-based; conditions: GPCR TACR2; agonist, 10 μM
# [8] = target: panel of 168 GPCRs (Homo sapiens, UniProt P30874); type: cell-based; conditions: GPCR SSTR2; agonist, 10 μM
# [9] = target: panel of 168 GPCRs (Homo sapiens, UniProt P32248); type: cell-based; conditions: GPCR CCR7; agonist, 10 μM
# panel of 168 GPCRs (Homo sapiens, UniProt P32248), sequence (P32248 25-378 limits assumed): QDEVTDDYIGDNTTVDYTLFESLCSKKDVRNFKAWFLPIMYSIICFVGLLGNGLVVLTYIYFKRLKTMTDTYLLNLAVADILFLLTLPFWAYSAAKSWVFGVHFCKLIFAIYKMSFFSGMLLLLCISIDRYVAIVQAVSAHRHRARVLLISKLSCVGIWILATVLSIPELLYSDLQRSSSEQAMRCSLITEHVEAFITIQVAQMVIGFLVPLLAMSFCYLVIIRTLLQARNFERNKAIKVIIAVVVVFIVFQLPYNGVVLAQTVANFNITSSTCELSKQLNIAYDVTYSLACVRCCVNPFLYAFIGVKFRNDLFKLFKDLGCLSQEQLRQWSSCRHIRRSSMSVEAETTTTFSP
# [10] = target: panel of 168 GPCRs (Homo sapiens, UniProt P43119); type: cell-based; conditions: GPCR PTGIR; agonist, 10 μM
# [11] = target: panel of 168 GPCRs (Homo sapiens, UniProt P35414); type: cell-based; conditions: GPCR AGTRL1; agonist, 10 μM
# [12] = target: panel of 168 GPCRs (Homo sapiens, UniProt P21554); type: cell-based; conditions: GPCR CNR1; agonist, 10 μM
# [13] = target: panel of 168 GPCRs (Homo sapiens, UniProt P28222); type: cell-based; conditions: GPCR HTR1B; agonist, 10 μM
# [14] = target: panel of 168 GPCRs (Homo sapiens, UniProt P21917); type: cell-based; conditions: GPCR DRD4; agonist, 10 μM
# [15] = target: 5HT2B receptor (Homo sapiens (Human), UniProt P41595); assay: HTRF IP1 accumulation assay (Eurofins Cerep); type: cell-based
# 5HT2B receptor, sequence (P41595 whole entry): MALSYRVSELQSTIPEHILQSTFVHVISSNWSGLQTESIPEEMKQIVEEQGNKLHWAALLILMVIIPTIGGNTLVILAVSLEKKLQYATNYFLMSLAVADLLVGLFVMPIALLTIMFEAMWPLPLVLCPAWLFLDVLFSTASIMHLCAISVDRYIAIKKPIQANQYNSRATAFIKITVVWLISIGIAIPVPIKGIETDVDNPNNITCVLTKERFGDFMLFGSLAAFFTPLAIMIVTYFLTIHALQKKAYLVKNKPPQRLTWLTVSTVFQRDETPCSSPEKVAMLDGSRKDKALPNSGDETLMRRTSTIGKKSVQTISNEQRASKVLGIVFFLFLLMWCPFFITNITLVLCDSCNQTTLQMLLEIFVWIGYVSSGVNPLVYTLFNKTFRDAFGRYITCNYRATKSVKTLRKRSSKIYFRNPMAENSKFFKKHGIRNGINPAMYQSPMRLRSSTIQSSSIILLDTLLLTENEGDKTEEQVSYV
# [16] = target: D3R Y365A (Homo sapiens (Human), UniProt P35462, Y365A); assay: arrestin BRET assay, mutagenesis; type: cell-based; conditions: Y365A mutation
# D3R Y365A, sequence (P35462 whole entry Y365A): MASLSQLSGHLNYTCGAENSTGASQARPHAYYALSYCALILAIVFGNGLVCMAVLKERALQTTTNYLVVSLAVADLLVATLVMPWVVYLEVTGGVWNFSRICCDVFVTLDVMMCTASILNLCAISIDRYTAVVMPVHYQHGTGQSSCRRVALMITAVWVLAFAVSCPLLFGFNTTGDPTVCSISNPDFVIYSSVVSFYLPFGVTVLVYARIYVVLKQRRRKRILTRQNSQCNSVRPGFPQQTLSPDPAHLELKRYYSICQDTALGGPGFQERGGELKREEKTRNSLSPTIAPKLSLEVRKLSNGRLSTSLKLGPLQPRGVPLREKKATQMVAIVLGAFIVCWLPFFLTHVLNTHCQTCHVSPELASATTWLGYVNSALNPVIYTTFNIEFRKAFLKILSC
# Description: (§1) BRET arrestin recruitment assay. As an orthogonal test using an unrelated assay of D3R-mediated β-arrestin recruitment, an arrestin BRET assay was conducted.
# (§2) […]. […] […]. The Y365A mutation had more dramatic effects. […].
# [17] = target: D3R Y198A (Homo sapiens (Human), UniProt P35462, Y198A); assay: arrestin BRET assay, mutagenesis; type: cell-based
# D3R Y198A, sequence (P35462 whole entry Y198A): as the sequence (P35462 whole entry Y365A) above, with Y198A, A365Y counted along it
# Description: as §1, §2
# [18] = test system: receptors, transporters and some ion channels; assay: PDSP primary radioligand binding panel; conditions: 10 μM, >50% inhibition considered significant
# Description: […]. […] […]. […] […].
# [19] = test system: TA98; assay: Ames reverse mutation assay; type: cell-based; conditions: highest conc. tested 2,000 μg/ml
# Description: (§3) […]. The cultures were then diluted into an indicator medium lacking histidine, dispensed into a 384-well plate, and incubated for 48 h at 37° C. Cells that have undergone a reversion will grow, resulting in a color change. The number of wells showing growth were counted and compared to the vehicle control. […]. Data were analyzed using an unpaired, one-sided Student's T-test. Where indicated, S9 fraction from the livers of Aroclor 1254-treated rats were included in the incubation at a 4.5% final concentration. An NADPH-regenerating system was also included to ensure a steady supply of reducing equivalents.
# [20] = test system: TA100; assay: Ames reverse mutation assay; type: cell-based; conditions: highest conc. tested 2,000 μg/ml
# Description: as §3
# [21] = target: T1, D2 DAR; assay: [35S]GTPγS binding assay; type: biochemical; conditions: % maximum dopamine response
# Description: A [^35S]GTPγS (Perkin Elmer NEG030H) binding assay was utilized as described in the protocol below (Table 7).
# [22] = test system: terminally differentiated SHSY5Y cells; assay: Neuroprotection assay against 6-hydroxydopamine; type: cell-based; conditions: 24 h pretreatment, 10 μM 6-hydroxydopamine
# Description: […]. Protection against total neurite length decrease was measured 24 h later. […].
# 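For β-Arrestin Recruitment activity in this document: recruitment activity reported in % for each GPCR in the panel.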
# T1 sequence (P14416 whole entry): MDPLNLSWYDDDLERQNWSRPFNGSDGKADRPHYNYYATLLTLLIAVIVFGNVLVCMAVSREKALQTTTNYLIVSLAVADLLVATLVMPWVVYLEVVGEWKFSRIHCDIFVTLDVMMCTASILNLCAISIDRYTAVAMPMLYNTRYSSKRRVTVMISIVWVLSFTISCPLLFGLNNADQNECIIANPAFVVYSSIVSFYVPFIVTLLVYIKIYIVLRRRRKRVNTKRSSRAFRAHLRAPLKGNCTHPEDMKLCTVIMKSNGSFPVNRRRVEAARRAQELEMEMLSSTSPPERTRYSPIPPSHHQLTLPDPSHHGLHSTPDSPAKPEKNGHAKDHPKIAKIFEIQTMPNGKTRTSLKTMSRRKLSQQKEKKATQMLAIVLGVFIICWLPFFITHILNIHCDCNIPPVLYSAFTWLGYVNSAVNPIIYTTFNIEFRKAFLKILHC
# D3 DAR, sequence (P35462 whole entry): as the sequence (P35462 whole entry Y365A) above, with A365Y counted along it
smiles,measurement,setting,value
"COc1ccc(OCCN2CCN(C(=O)c3cc4ccccc4[nH]3)CC2)cc1 [Compound 1, (1H-indol-2-yl)(4-(2-(4-methoxyphenoxy)ethyl)piperazin-1-yl)methanone]",D2 Emax,[1],Curve
same,EC50,[2],36 nM
same,β-Arrestin Recruitment activity,[3],0%
same,β-Arrestin Recruitment activity,[4],6%
same,β-Arrestin Recruitment activity,[5],0%
same,β-Arrestin Recruitment activity,[6],3%
same,β-Arrestin Recruitment activity,[7],3%
same,β-Arrestin Recruitment activity,[8],0%
same,β-Arrestin Recruitment activity,[9],4%
same,β-Arrestin Recruitment activity,[10],4%
same,β-Arrestin Recruitment activity,[11],4%
same,β-Arrestin Recruitment activity,[12],5%
same,β-Arrestin Recruitment activity,[13],16%
same,β-Arrestin Recruitment activity,[14],4%
same,inhibition at 10 µM,[15]; read-out: inhibition of response elicited by serotonin,80%
same,"agonist activity, IP1 accumulation",[15]; single high concentration of 10 μM,No agonist activity was found
same,"efficacy, % that of dopamine",[16],210%
same,potency reduction,[16],440 fold
same,effect of mutation on potency,[17],minimal effects on the potency
same,"signaling efficacy, % that of dopamine",[17]; Y198A mutation,36%
same,affinity in primary binding panel,[18],"displays affinity for only the D3R, 5-HT1A, 5-HT2B, and Sigmal receptor"
same,AMES Result,"[19]; TA98, S9 No",Negative
same,AMES Result,"[19]; TA98, S9 Yes",Negative
same,AMES Result,"[20]; TA100, S9 No",Negative
same,AMES Result,"[20]; TA100, S9 Yes",Negative
same,"activation of the D2 DAR, [35S]GTPγS binding",[21],not to activate the D2 DAR
same,"neuroprotection, dose-response",[22],clear concentration dependent effect
same,"neuroprotection, protection against total neurite length decrease",[22]; compared with pramipexole,neuroprotection superior to pramipexole
